Assay [1] relates to HCE cells (human corneal epithelial cells). The experiment in a line: Suppressive effect on cell injury caused by ethanol (MTT method). The class given is cell-based. Conditions: 4 v/v % ethanol, FIG. 4. The procedure: HCE cells (human corneal epithelial cells) were cultured in a medium containing Compound (1aa) and 4 v/v % ethanol. The number of live cells was measured by the MTT method, and relative values of light absorbance with respect to the light absorbance of the control (absence of ethanol) were calculated. The value is expressed as average value±S.D. (n=3), *P<0.05; and **P<0.01.
In general terms: Tetrazolium dyes change colour on reduction, which living cells bring about.

The subject of assay [2] is muc1 and muc16 messenger RNAs in HCE cells. The experiment in a line: Change in amount of expression of mucin messenger RNA (real time RT-PCR). Type of assay: cell-based, human. The settings on record: 3 hours and 24 hours, FIG. 8. The procedure:
HCE cells were cultured in a medium containing Compound (1aa). The amounts of expression of muc1 and muc16 messenger RNAs after culturing for 3 hours and 24 hours were measured by a real time RT-PCR method. Relative values of the amount of expression with respect to the amount of expression of actin messenger RNA were calculated, and the results are presented in FIG. 8. The value is expressed as average value±S.D. (triplicate), *P<0.05; and **P<0.01.
For orientation: Quantitative PCR measures a nucleic acid by following its amplification.

The next assay relates to dry eye model rat. The experiment in a line: Therapeutic effect on corneal surface injury in dry eye model rat (lacrimal glands removed). Type of assay: in vivo. The settings on record: 5 μL of aqueous solution 0.05 w/v % (1.5 mM) three times a day, 1 to 5 weeks after removal of lacrimal glands. The procedure:
The lacrimal glands of a rat were removed, and a dry eye model was produced. After 1 to 5 weeks from the removal of lacrimal glands, 5 μL of an aqueous solution containing Compound (1aa) (0.05 w/v %, 1.5 mM) was administered to the rat three times a day. The value is expressed as average value±S.E.M., *P<0.05; and **P<0.01.

Another assay deals with HCE cells. Description: Suppressive effect on apoptosis under hyperosmotic conditions (caspase-3-like activity, fluorescent peptide substrate). The class given is cell-based, human. The settings on record: 160 mM NaCl, 3 hours and 6 hours, FIG. 5. The procedure: HCE cells were cultured in a hyperosmotic medium containing Compound (1aa) and 160 mM NaCl. After culturing for 3 hours and 6 hours, caspase-3-like activity, which is a marker for apoptosis, was measured using a fluorescent peptide substrate, and the results are presented in FIG. 5. The value is expressed as average value±S.D. (triplicate), **P<0.01, and the term n.s. means “not significant”.

Assay [3] deals with HCE cells (human corneal epithelial cells). Description: Suppressive effect on cell injury under hyperosmotic conditions (MTT method). The class given is cell-based. Conditions: 24 hours, hyperosmotic medium with 150 mM NaCl and 160 mM NaCl, or 320 mM glucose, FIG. 1 to FIG. 3. The procedure: HCE cells (human corneal epithelial cells) were cultured for 24 hours in a hyperosmotic medium containing a compound of Formula (1aa) (hereinafter, Compound (1aa)) (as a hydrate). The medium was adjusted to fulfill the hyperosmotic conditions using 150 mM NaCl and 160 mM NaCl, or 320 mM glucose. The number of live cells was measured by the MTT method, and relative values of light absorbance with respect to the light absorbance of the control (isotonic pressure conditions) were calculated. The value is expressed as average value±S.D. (n=3), **P<0.01.

These results are taken from patent US20210206773A1, “DRUG FOR TREATING DISORDERS OF CORNEAL EPITHELIUM” (EA PHARMA CO., LTD., priority 2014, published 2021).

The structures appear in SMILES notation.

`O=C1NCC2=C1[C@@H](c1ccccc1)N(C(=O)CO)[C@@H]1CCCC[C@H]1N2` [Compound (1aa), (1R,8R,10R)-9-(2-hydroxyacetyl)-8-phenyl-2,5,9-triazatricyclo[8.4.0.0^3,7]tetradeca-3(7)-en-6-one]: the “survival rate of corneal epithelial cells with ethanol (number of live cells, relative light absorbance vs control)” value in assay [1] is reported as “noticeably suppressed the decrease in the survival rate of corneal epithelial cells”. The “amount of expression of mucin (muc1 and muc16 messenger RNAs relative to actin messenger RNA)” value in assay [2] is given as “increases the amount of expression of mucin”. Also, the “amount of lacrimal fluid (cotton thread test)” value with dry eye model rat (FIG. 6) was “increasing the amount of lacrimal fluid”. For the same molecule, in the assay with dry eye model rat (FIG. 7), the “injury of the corneal surface (fluorescein scores)” value was “suppressed injury of the corneal surface”. Besides, the “hyperosmotic stress-dependent apoptosis (caspase-3-like activity)” value in the assay on HCE cells is on record as “noticeably suppressed hyperosmotic stress-dependent apoptosis”. The “survival rate of corneal epithelial cells under hyperosmotic conditions (number of live cells, relative light absorbance vs control)” value in assay [3] is “noticeably suppressed the decrease in the survival rate of corneal epithelial cells”.
